# Structures can show the parent of a compound that is named as a salt. Where two headings read alike, the source gives them in different places.
# Biological target: eel acetylcholinesterase (AChE) (Electrophorus electricus, UniProt O42275)
# Assay: Eel AChE fluorescence assay (AMPLEX Red kit)
# Assay type: biochemical
# Procedure: Enzymatic reactions consisted of 50 μM acetylcholine, 200 μM AIVIPLEX™ Red reagent, 1 U/mL horseradish peroxidase, 0.1 U/mL choline oxidase and 0.096 U/mL acetylcholinesterase, with 30 1% DMSO. […] Control reactions lacking acetylcholinesterase but containing 5 μM H2O2 in presence of compounds were analyzed at the same wavelength to exclude compounds that display assay interference. Dose-response curves were performed in duplicate.
# Chain of eel acetylcholinesterase (AChE) (O42275 24-633): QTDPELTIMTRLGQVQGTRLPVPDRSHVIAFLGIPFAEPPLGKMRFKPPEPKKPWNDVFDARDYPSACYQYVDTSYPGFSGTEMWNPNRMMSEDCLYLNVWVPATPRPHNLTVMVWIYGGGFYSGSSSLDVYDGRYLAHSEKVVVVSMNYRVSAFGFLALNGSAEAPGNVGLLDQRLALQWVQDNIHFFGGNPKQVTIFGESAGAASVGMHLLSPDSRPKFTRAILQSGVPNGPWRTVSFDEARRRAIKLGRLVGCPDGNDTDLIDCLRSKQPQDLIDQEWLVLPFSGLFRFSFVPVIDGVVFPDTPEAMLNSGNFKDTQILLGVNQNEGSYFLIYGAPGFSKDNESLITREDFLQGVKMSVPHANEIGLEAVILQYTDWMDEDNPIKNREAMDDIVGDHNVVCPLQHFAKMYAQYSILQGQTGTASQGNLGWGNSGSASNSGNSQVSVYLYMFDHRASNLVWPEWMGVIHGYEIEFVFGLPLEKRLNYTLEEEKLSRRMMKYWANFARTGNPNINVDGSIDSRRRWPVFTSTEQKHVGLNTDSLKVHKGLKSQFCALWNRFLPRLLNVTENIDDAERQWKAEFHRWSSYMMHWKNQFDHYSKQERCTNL
smiles,measurement,setting,value
CCN(CC)CCC[C@H](C)Nc1c2ccc(Cl)cc2nc2ccc(OC)cc12 [quinacrine hydrochloride],inhibition at 20 µM,"eel AChE activity, at 20 μM, read-out: Percentage inhibition",61.8%
same,inhibition at 20 µM,read-out: inhibition of enzyme activity compared to DMSO control (screen),> 50%

# — patent US20230330045A1 (priority 2020, published 2023)
